Consider 9 compounds from patent publication US6277867A, “Pesticide compounds, compositions and process for the preparation thereof” (priority 1995, dated 2001).

Where two headings read alike, the source gives them in different places.

Data set [1] concerns resistant house fly, INSEL strain. The data set can be described thus: Synergistic activity on resistant house fly, INSEL strain. It is filed as in vivo, Musca domestica. Conditions: active ingredient alone. As to the method: (§1) Investigation of Synergistic Activity on Resistant House Fly (Musca domestica) Populations
(§2) Investigation was carried out as described in biological Example 1. LD50 values and synergist ratios were determined as given in Example 2.

Data set [2] deals with resistant house fly, IX strain. The data set can be described thus: Synergistic activity on resistant house fly, IX strain. It is filed as in vivo, Musca domestica. The conditions noted are these: active ingredient alone. The method, then: as §1, §2
The subject of data set [3] is two-spotted spider mite (Tetranychus urticae). The data set can be described thus: Synergism of acaricidal effect on two-spotted spider mite (leaf-disc dip). Type of data set: in vivo. Conditions: 48 h. As to the method:
Synergism of Acaricidal Effect Investigated on Two-spotted Spider Mite (Tetranychus urticae)
From the first pair of leaves of a 1 week old bean plant leaf-discs of […] diameter were cut which were treated by dipping them (5 min) into the test solution consisting of the active ingredient and the synergist in definite concentrations. For the preparation of the stock solutions of required concentration, 10% acetone as co-solvent and 0.1% Tween-80 as detergent were applied. The dried leaf-discs were placed on wet surface and they were infected with […]-up female mites per leaf. After 48 hours the mortality was recorded using microscope and a brush. The experiment was performed in 4 replica.

Data set [4] shares this test system. The data set can be described thus: Synergist activity of compound 599 against two-spotted spider mite. Type of data set: in vivo. As to the method:
From the first pair of leaves of a 1 week old bean plant leaf-discs of […] diameter were cut which were treated by dipping them (5 min) into the test solution consisting of the active ingredient and the synergist in definite concentrations. For the preparation of the stock solutions of required concentration, 10% acetone as co-solvent and 0.1% Tween-80 as detergent were applied. The dried leaf-discs were placed on wet surface and they were infected with […]-up female mites per leaf. […] The experiment was performed in 4 replica.
Synergist activity of compound 599 with various specific acaricides was investigated against two-spotted spider mite (Tetranychus urticae), by the method described in Example 8.

The test system of data set [5] is pea aphid (Acyrthosiphon pisun). The data set can be described thus: Synergist activity against pea aphid, field trial. The conditions noted are these: two days after treatment. It is filed as in vivo. As to the method: Synergist Activity Against Pea Aphid (Acyrthosiphon pisun)
Synergist activity of compound No. 599 was tested against pea aphid (Acyrthosiphon pisun) in field trials on small plots (10 m^2). 300 l/ha spray volume was applied using motoric sprayer (Maruyama). Efficacy was expressed by the average number of aphids/leaf before, and two days after the treatment, respectively. (Henderson and Tilton: J. Econ. Entomol., 48:157, 1955).

Data set [6] relates to house fly (Musca domestica). Conditions: in vivo, topical_or_ocular, 1440 min. The method, then: Investigation of Synergistic Activity on House Fly (Musca domestica) Following Topical Application
In two parallel experiments 10 female. 2-4 day old house flies were treated on the vental side of their thorax with 0.2 μl of the test solution, with the help of Hamilton MicroLab P microdispenser. Beside fixed synergist dose of 1000 ng/fly the animals were treated with carbofuran at a dose of 20 ng/fly. For solvent cellosolve was used. Selection and counting of the flies were performed under the action of CO2. After treatment the flies were kept in plastic cups covered with tulle. Mortality after 24 hours was expressed in %.

Data set [7] relates to cotton bollworm (Helicoverpa armigera). The data set can be described thus: Synergistic activity on cotton bollworm following topical application. Conditions: in vivo. The method, then:
Investigation of Synergistic Activity on Cotton Bollworm (Helicoverpa armigera) Following Topical Application
Treatment was performed similarity as described in Example 1. but L2 stadium grubs of cotton bollworms (Helicoverpa armigera) were treated as test animals. From the 24 hour dose--mortality data the LD50 (ng/grub) values were determined using probit analysis. None of the synergists acted at the applied 1000 ng/grub dose. Synergist ratio was calculated as the quotient of the LD50 values of carbofuran administered alone, and with the synergist. The experiments were performed in 2-4 replica.

Data set [8] deals with house fly (Musca domestica). The data set can be described thus: Effect on fecundity, on house fly. The conditions noted are these: 500 ppm in granulated sugar, 48 hours feeding; eggs of next 10 days. Type of data set: in vivo. The method, then: Investigation of the Effect on Fecundity, on House Fly (Musca domestica)
Groups consisting of freshly hatched 50 male and 50 female flies were fed during 48 hours with granulated sugar comprising 500 ppm of material No. 441 and 484 of the present invention respectively, and the eggs layed on the next 10 days were raised. The fecundity-hindering effect was expressed as the quotient of the emerged flies in the treated and untreated groups. The experiments were performed in 4 replica.

Data set [9] has as its system mammals. The conditions noted are these: cited from earlier work.
In data set [10] the test system is house fly (Musca domestica). The data set can be described thus: Effect of the active ingredient:synergist ratio on the synergistic activity (flies). The method, then:
Effect of the Active Ingredient:Synergist Ratio on the Synergistic Activity
Treatment was performed as described in Example 1. using Hamilton MicroLab P microdispenser. In two parallel experiments 10 female -3 day old flies were treated on the ventral side of their thorax with 0.2 μl test solution. Beside 1000-400-200-80 ng/fly fixed doses of the synergist they were treated with constant 20 ng/fly CARBOFURAN®. Selection and counting of the flies were performed under the action of CO2. After treatment the flies were kept in plastic cups covered with tulle. After 24 hours mortality % was recorded. Depending on the results the experiments were performed in 2-4 replica.

Data set [11] deals with flies. The data set can be described thus: Comparative investigations with known reference synergists on flies treated with carbofuran. It is filed as in vivo. Conditions: flies treated with carbofuran and 1000 ng of the synergist. The source says:
These SR50 ratios were compared to those of the new compounds prepared by us.

The mark [12] stands for this setting: Acaricide/Synergist 1:0, 3 h, read-out: LC50.
The mark [13] stands for this setting: Acaricide/Synergist 1:0, 24 h, read-out: LC50.

For `CNC(=O)Oc1cccc2c1OC(C)(C)C2` [CARBOFURAN, reference compound], the LD50 in data set [1] turned out to be 15375 ng/fly. Besides, in data set [2], the LD50 is listed as above 100000 ng/fly. In data set [3], the mortality – broadly, the share of the test organisms that died – at 31 ppm was 13%; the mortality at 62 ppm came to 39%; the mortality at 125 ppm came to 44%; the mortality at 250 ppm is 81%. In addition, the mortality at 500 ppm in data set [3] worked out at 90%. Further, the LC50 (in general, the concentration that kills 50% of the test population) in data set [4] (24 h) was determined as 164 µg/mL. Further, the “E (%)” value in data set [5] (dose 110 act. ingr./ha) is reported as 98.0%. Also, the “E (%)” value in data set [5] (dose 160 act. ingr./ha) came out at 99.1%.

`CC#CCOC(c1ccc2c(c1)OCO2)C(C)C` (centres unmarked) [Compound 484, 5-[2-Methyl-1-(2-butynyloxy)-propyl]-1,3-benzodioxole]: the mortality % in [6] is recorded as 63%. Further, in [7], the Synergist ratio is above 5. For the same compound, in [8], the “Hindering effect on fecundity” value turned out to be 90%.

Regarding `N#Cc1nn(-c2c(Cl)cc(C(F)(F)F)cc2Cl)c(N)c1[S+]([O-])C(F)(F)F` (centres unmarked) [FIPRONIL], in data set [5] (dose 240 act. ingr./ha), the “E (%)” value came out at 94.6%.

Turning to `Cc1nc(N(C)C)nc(OC(=O)N(C)C)c1C` [PIRIMICARB, reference compound], the LD50 in data set [1] and in data set [2] was above 100000 ng/fly in each case. For the same compound, the “E (%)” value came to 86.3% in data set [5] (dose 80 act. ingr./ha) and 93.8% in [5] (dose 250 act. ingr./ha).

Take `CCCCOCCOCCOCc1cc2c(cc1CCC)OCO2` [PBO]: the tumor provoking effect result in data set [9] is recorded as “suspected tumor provoking effect”.

As to `CC#CCOCc1ccc2c(c1)OCO2` [Compound 441, 5-[(But-2-ynyloxy)-methyl]-1,3-benzodioxole], the mortality % in data set [6] came out at 97%. The Synergist ratio in [7] is recorded as above 5. The “24 hour mortality (%)” value in data set [10] (carbofuran 20 ng/fly + synergist 80 ng/fly) is on record as 62%; in data set [10] (carbofuran 20 ng/fly + synergist 200 ng/fly), 67%; in [10] (carbofuran 20 ng/fly + synergist 400 ng/fly) it was 90%; in data set [10] (house fly, in vivo, topical_or_ocular) it was 95%. For the same compound, in [8], the “Hindering effect on fecundity” value was 87%. For the same compound, the “Synergist ratio SR50” value in [11] came to 25.70.

In the case of `CCOC(=O)CSc1nc(C(C)(C)C)nn1C(=O)N(C)C` [TRIAZAMATE], the “E (%)” value in [5] (dose 50 act. ingr./ha) came to 96.8%.

In the case of `CCc1nn(C)c(C(=O)NCc2ccc(C(C)(C)C)cc2)c1Cl` [TEBUFENPYRAD], the LC50 in [4] (setting [12]) was above 1000 µg/mL; in data set [4] (setting [13]), 63.4 µg/mL.

Consider `CC(C)(C)c1ccc(CCOc2ncnc3ccccc23)cc1` [FENAZAQUIN], for which the figures for the LC50 in data set [4] (setting [12]) and in [4] (setting [13]) were above 1000 µg/mL and 41.9 µg/mL, respectively.
